Consider two compounds from PMC5329948, “Caspase vinyl sulfone small molecule inhibitors prevent axonal degeneration in human neurons and reverse cognitive impairment in Caspase-6-overexpressing mice” (Molecular Neurodegeneration, 2017).

The target in one test is T1, recombinant Caspase-4 (Homo sapiens, UniProt P49662).
T1 construct: purchased BioVision
Put plainly: Caspase Inhibitor Drug Screening Kit (BioVision), LEVD-AFC substrate. It counts as biochemical. Particulars: not active site titrated. The procedure:
The half-maximal inhibitory concentrations (IC50) for NWL inhibitors (Patent publication # WO/2009/140765, WO/2010/133000, and WO/2012/140500) was determined by incubating 0 to 20 μM NWL-117 and NWL-154 with 20 nM of active site-titrated Casp6 in SB at room temperature for 5 minutes. Then, 10 μM Ac-VEID-AFC was added and fluorescence measured for 20 min at 37 °C as described above. New World Laboratories performed the IC50 determination for NWL inhibitors dissolved in dimethyl sulfoxide (DMSO) against recombinant Casp1-10 using the Caspase Inhibitor Drug Screening Kits (BioVision, San Francisco, CA) following the manufacturer’s instructions and the preferred substrates for the caspases (Caspase-1: WAD-AFC, Caspase-2: VDVAD-AFC, Caspase-3: DEVD-AFC, Caspase-4: LEVD-AFC, Caspase-5: WEHD-AFC, Casp6:VEID-AFC, Caspase-7: DEVD-AFC, Caspase-8: IETD-AFC, Caspase-9: LEHD-AFC, Caspase-10: AEVD-AFC). In transfected HCT116 cells, 0 to 100 μM NWL inhibitors were added in the culture media and left on the cells for 2 h. Cells were washed once with 1 mL ice-cold PBS, incubated on ice for 5 min with 200 μL cell lysis buffer (CLB) (50 mM HEPES, 0.1% CHAPS, 0.1 mM EDTA), and gently scraped off. Protein concentrations were determined by Bradford assay (BioRad, Mississauga, ON, CA) by measuring the absorbance at 595 nm using the BioTek Synergy H4 plate reader. […]

The target in test [1] is T2, recombinant active site-titrated Casp6 (Homo sapiens, UniProt P55212).
T2 construct: human Casp6 large subunit (amino acids 24-179, flanked by start (ATG) and stop (TAA) codons); small subunit (amino acids 194-293, preceded by a start codon); initiator Met (added start codon) (N); His; made in house; host or cells: E. coli BL21(DE3)pLysS
T2 sequence (P55212 24-179): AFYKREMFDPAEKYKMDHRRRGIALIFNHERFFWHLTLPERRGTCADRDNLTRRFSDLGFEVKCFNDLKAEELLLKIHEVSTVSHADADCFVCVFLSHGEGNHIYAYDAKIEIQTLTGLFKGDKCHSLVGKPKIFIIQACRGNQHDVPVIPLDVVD
T2 sequence (P55212 194-293): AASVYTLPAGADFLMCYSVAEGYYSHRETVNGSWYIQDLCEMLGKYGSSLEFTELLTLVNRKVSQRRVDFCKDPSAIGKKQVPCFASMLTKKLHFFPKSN
Put plainly: IC50 on in-house recombinant active site-titrated Casp6 (Ac-VEID-AFC fluorogenic assay). The note with it: 20 nM Casp6, 5 min preincubation at room temperature, 10 μM Ac-VEID-AFC; read-out: IC50 against recombinant active site-titrated Casp6. The class given is biochemical. How it is done: Recombinant Casp6 Expression and purification: Casp6 was expressed from the pET23b(+)-Casp6-His plasmid in E. coli BL21(DE3)pLysS strain (Promega, Fitchburg, WI, USA) at 37 °C in 2xYT medium (16 g/l tryptone, 10 g/l yeast extract, 5 g/l NaCl) supplemented with 0.1 mg/ml ampicillin and 0.034 mg/ml chloramphenicol under vigorous shaking according to [46]. Casp6 expression was induced with 50 μM isopropyl β-D-1-thiogalactopyranoside (IPTG) when cell cultures reached OD595 nm of 0.6 and cells cultured at 22 °C for 16 h under vigorous shaking. […] The lysate was clarified by centrifugation (30,000 x g for 30 min at 4 °C) and loaded on Ni Sepharose Fast Flow 6 medium (GE Healthcare Life Sciences, Baie D’Urfe, QC, CA) pre-equilibrated with buffer A, washed with buffer B (50 mM Tris pH 8.5, 500 mM NaCl, 5% glycerol, 20 mM imidazole), and bound proteins eluted with a 50-300 mM linear imidazole gradient in buffer A. Fractions were assessed for recombinant Casp6 purity by SDS-PAGE and Coomassie blue staining. […] Protein concentration was measured using Quick Start Bradford 1x Dye Reagent (Bio-Rad Laboratories, Hercules, CA, USA). Active site titration assay: The concentration of Casp6 active sites was determined by active site titration assay using Z-VAD-fmk (N-benzyloxycarbonyl-Val-Ala-Asp-(O-methyl)-fluoromethylketone, MP Biomedicals, Santa Ana, CA, USA) inhibitor [46]. […]

T1 sequence (P49662 81-377): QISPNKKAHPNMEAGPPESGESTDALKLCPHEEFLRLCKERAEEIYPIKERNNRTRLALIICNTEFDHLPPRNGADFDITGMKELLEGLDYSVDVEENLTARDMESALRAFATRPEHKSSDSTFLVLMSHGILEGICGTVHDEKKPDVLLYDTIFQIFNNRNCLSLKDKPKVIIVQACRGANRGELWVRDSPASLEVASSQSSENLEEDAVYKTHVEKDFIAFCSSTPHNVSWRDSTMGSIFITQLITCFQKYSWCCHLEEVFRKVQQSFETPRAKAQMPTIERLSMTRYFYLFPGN

In the case of `CCC(C)[C@H](NC(=O)[C@H](CCC(=O)O)NC(=O)[C@@H](NC(=O)OCc1ccccc1)C(C)C)C(=O)N[C@H](/C=C/S(C)(=O)=O)CC(=O)O` (stereo partly shown) [NWL-117], the IC50 (in general, the midpoint of a concentration-inhibition curve) was 380 nM at recombinant Caspase-4 and 192 nM in test [1].
Consider `CCC(C)[C@H](NC(=O)[C@H](CCC(=O)O)NC(=O)[C@@H](NC(=O)OCc1ccccc1)C(C)C)C(=O)N[C@H](/C=C(\Cl)S(C)(=O)=O)CC(=O)O` (stereo partly shown) [NWL-154], for which the IC50 at recombinant Caspase-4 came to 1800 nM; in test [1], 100 nM.
